From patent publication US8765767B2, “Positive allosteric modulators of mGluR2” (Bristol-Myers Squibb Company, priority 2012, dated 2014)

Target: T1, human mGluR2 (Homo sapiens, UniProt Q14416)
T1 construct: expressed in transfected cells; host or cells: HEK293 clonal line
Assay: mGluR2 cAMP assay (HTRF) in HEK293 cells clonally expressing human mGluR2
Format: cell-based
Conditions: HEK293 cells expressing human mGluR2, 1 μM forskolin, 1 μM LY-341495, 30 min
Experimental: • Cell Culture. Clonally expressed human mGluR2 in HEK293 background was glutamate starved overnight in media without glutamine (GIBCO MEM 12360), containing 10% FBS, 1% penicillin streptomycin. • cAMP Measurement. On the day of the assay, media was removed, cells washed with PBS, cells harvested and pelleted by centrifugation. Cell pellets were resuspended in stimulation buffer without forskolin and counted. A solution of 1.25×10^6 cells/mL was prepared and dispensed to plates using a Combi liquid handler (Thermo). A standard curve was created using a top concentration of cAMP of 1 μM in the stimulation buffer, 1:3 dilutions over 14 points in the absence of cells. Plates were read by time-resolved fluorescence at […] and a ratio was calculated via in house software, (665 nM/618 nM)*10^4. In house software converted the fluorescence value ratios to units of cAMP concentration, which is then used to calculate % inhibition for each test compound. • MGluR2 cAMP Assay Materials and Methods. Compounds were added to white, standard volume 384 non-binding surface plates (Corning 3574). Cells were resuspended in stimulation buffer consisting of Hanks Balanced Salt Solution (14175-095) pH 7.0, 20 mM HEPES, 2.0 mM CaCl2, 5.0 mM MgCl2, and 1 mM IBMX (Sigma 15879), 1 μM forskolin, and 1 μM LY-341495 for 30 min. Buffer without forskolin was used as a negative control. Solutions of D2 and cryptate detection reagents from the CISBIO dynamic cAMP kit (62AM4PEJ) were diluted 1:40 in lysis buffer. Lysis buffer consisted of 50 mM Phosphate Buffer pH 7.0, 800 mM Potassium Fluoride, 0.2% BSA, and 1.0% Triton. Assay reaction was terminated by addition of detection reagents in lysis buffer. One hour later, plates were read on a PE Viewlux. Data was extracted, and concentration response curves generated by fitting the data to a standard 4 parameter logistic equation from which EC50 values were determined.

T1 sequence (Q14416 19-872): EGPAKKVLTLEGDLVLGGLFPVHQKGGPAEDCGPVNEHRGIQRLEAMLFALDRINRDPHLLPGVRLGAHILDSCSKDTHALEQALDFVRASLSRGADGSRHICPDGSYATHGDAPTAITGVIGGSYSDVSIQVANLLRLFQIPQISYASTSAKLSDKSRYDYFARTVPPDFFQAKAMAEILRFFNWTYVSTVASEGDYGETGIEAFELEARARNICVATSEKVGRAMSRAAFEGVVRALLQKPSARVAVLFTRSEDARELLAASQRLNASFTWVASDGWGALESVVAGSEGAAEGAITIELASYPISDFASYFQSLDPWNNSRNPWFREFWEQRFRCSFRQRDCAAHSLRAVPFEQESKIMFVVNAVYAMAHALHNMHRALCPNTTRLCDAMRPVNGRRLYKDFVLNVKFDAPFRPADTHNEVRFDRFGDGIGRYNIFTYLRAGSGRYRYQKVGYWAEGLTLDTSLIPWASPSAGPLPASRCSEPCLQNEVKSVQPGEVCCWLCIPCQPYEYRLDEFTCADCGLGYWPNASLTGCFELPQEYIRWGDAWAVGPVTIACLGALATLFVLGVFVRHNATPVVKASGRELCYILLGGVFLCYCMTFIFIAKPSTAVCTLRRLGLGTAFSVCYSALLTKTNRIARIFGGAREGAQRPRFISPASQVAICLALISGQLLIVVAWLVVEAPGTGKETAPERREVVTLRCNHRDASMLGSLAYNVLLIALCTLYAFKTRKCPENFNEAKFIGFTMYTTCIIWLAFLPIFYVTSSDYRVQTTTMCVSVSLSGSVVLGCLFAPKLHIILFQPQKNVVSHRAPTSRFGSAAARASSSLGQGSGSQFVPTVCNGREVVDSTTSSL

EC50	Structure (SMILES)
0.009 µM	Fc1ccc(C2CC2CNc2ccn3c(CC4CC4)nnc3c2Cl)cc1 (racemic) [Example 1, 8-chloro-3-(cyclopropylmethyl)-N-((2-(4-fluorophenyl)cyclopropyl)methyl)-[1,2,4]triazolo[4,3-a]pyridin-7-amine]
0.005 µM	Clc1c(NC[C@@H]2C[C@H]2c2ccccc2)ccn2c(CC3CC3)nnc12 (relative stereo) [Example 4, Trans-8-chloro-3-(cyclopropylmethyl)-N-((2-phenylcyclopropyl)methyl)-[1,2,4]triazolo[4,3-a]pyridin-7-amine]
0.007 µM	COc1ccccc1[C@@H]1C[C@H]1CNc1ccn2c(CC3CC3)nnc2c1Cl (relative stereo) [Example 6, Trans-8-chloro-3-(cyclopropylmethyl)-N-((2-(2-methoxyphenyl)cyclopropyl)methyl)-[1,2,4]triazolo[4,3-a]pyridin-7-amine]
0.004 µM	FC(F)(F)Oc1ccccc1[C@@H]1C[C@H]1CNc1ccn2c(CC3CC3)nnc2c1Cl (relative stereo) [Example 9, Trans-8-chloro-3-(cyclopropylmethyl)-N-((2-(2-(trifluoromethoxy)phenyl)cyclopropyl)methyl)-[1,2,4]triazolo[4,3-a]pyridin-7-amine]
0.005 µM	Fc1ccc([C@H]2C[C@@H]2CNc2ccn3c(CC4CC4)nnc3c2Cl)cc1 [Example 5, 8-Chloro-3-(cyclopropylmethyl)-N-(((1S,2S)-2-(4-fluorophenyl)cyclopropyl)methyl)-[1,2,4]triazolo[4,3-a]pyridin-7-amine]
0.012 µM	COc1cccc([C@H]2C[C@@H]2CNc2ccn3c(CC4CC4)nnc3c2Cl)c1 [Example 8, 8-Chloro-3-(cyclopropylmethyl)-N-(((1S,2S)-2-(3-methoxyphenyl)cyclopropyl)methyl)-[1,2,4]triazolo[4,3-a]pyridin-7-amine]
0.006 µM	COc1c(F)ccc(F)c1[C@H]1C[C@@H]1CNc1ccn2c(CC3CC3)nnc2c1Cl [Example 10, 8-Chloro-3-(cyclopropylmethyl)-N-(((1S,2S)-2-(3,6-difluoro-2-methoxyphenyl)cyclopropyl)methyl)-[1,2,4]triazolo[4,3-a]pyridin-7-amine]
0.083 µM	Fc1cnc(C2CC2CNc2ccn3c(CC4CC4)nnc3c2Cl)nc1 (stereo not shown) [Example 12, 8-Chloro-3-(cyclopropylmethyl)-N-((2-(5-fluoropyrimidin-2-yl)cyclopropyl)methyl)-[1,2,4]triazolo[4,3-a]pyridin-7-amine]
0.102 µM	Fc1cnc(C2CC2CNc2ccn3c(CC4CC4)nnc3c2C(F)(F)F)nc1 (stereo not shown) [Example 13, 3-(Cyclopropylmethyl)-N-((2-(5-fluoropyrimidin-2-yl)cyclopropyl)methyl)-8-(trifluoromethyl)-[1,2,4]triazolo[4,3-a]pyridin-7-amine]
0.244 µM	Clc1c(NCC2CC2c2ccncc2)ccn2c(CC3CC3)nnc12 (stereo not shown) [Example 18, 8-Chloro-3-(cyclopropylmethyl)-N-((2-(pyridin-4-yl)cyclopropyl)methyl)-[1,2,4]triazolo[4,3-a]pyridin-7-amine]
0.367 µM	Clc1c(NCC2CC2c2cccnc2)ccn2c(CC3CC3)nnc12 (stereo not shown) [Example 19, 8-chloro-3-(cyclopropylmethyl)-N-((2-(pyridin-3-yl)cyclopropyl)methyl)-[1,2,4]triazolo[4,3-a]pyridin-7-amine]
0.002 µM	Fc1ccc([C@H]2C[C@@H]2CNc2ccn3c(CC4CC4)nnc3c2C(F)(F)F)cc1 [Example 20, 3-(Cyclopropylmethyl)-N-(((1S,2S)-2-(4-fluorophenyl)cyclopropyl)methyl)-8-(trifluoromethyl)-[1,2,4]triazolo[4,3-a]pyridin-7-amine]
0.002 µM	Fc1ccc([C@H]2C[C@@H]2CNc2ccn3c(CC(F)(F)F)nnc3c2C(F)(F)F)cc1 [Example 21, N-(((1S,2S)-2-(4-Fluorophenyl)cyclopropyl)methyl)-3-(2,2,2-trifluoroethyl)-8-(trifluoromethyl)-[1,2,4]triazolo[4,3-a]pyridin-7-amine]

Second part, the molecule before the results:

Structure (SMILES)	EC50
Clc1c(NC[C@@H]2CCC[C@H]2c2ccccc2)ccn2c(CC3CC3)nnc12 (racemic) [Example 3, (+/−)Trans-8-chloro-3-(cyclopropylmethyl)-N-((2-phenylcyclopentyl)methyl)-[1,2,4]triazolo[4,3-a]pyridin-7-amine]	0.005 µM
FC(F)Oc1ccccc1[C@@H]1C[C@H]1CNc1ccn2c(CC3CC3)nnc2c1Cl (relative stereo) [Example 7, Trans-8-chloro-3-(cyclopropylmethyl)-N-((2-(2-(difluoromethoxy)phenyl)cyclopropyl)methyl)-[1,2,4]triazolo[4,3-a]pyridin-7-amine]	0.006 µM
Clc1c(NC[C@H]2CCC[C@@H]2c2ccccc2)ccn2c(CC3CC3)nnc12 (single isomer, unassigned) [Example 45]	0.012 µM
Clc1c(NC[C@@H]2CCC[C@H]2c2ccccc2)ccn2c(CC3CC3)nnc12 (single isomer, unassigned) [Example 46]	0.005 µM
Fc1ccc([C@H]2C[C@@H]2CNc2ccn3c(CC(F)(F)F)cnc3c2C(F)(F)F)cc1 (stereo in doubt) [Example 31, N-(((1S,2S)-2-(4-Fluorophenyl)cyclopropyl)methyl)-3-(2,2,2-trifluoroethyl)-8-(trifluoromethyl)imidazo[1,2-a]pyridin-7-amine]	0.024 µM
Fc1ccc([C@@H]2C[C@H]2CNc2ccn3c(CC(F)(F)F)cnc3c2C(F)(F)F)cc1 (stereo in doubt) [Example 32, N-(((1R,2R)-2-(4-Fluorophenyl)cyclopropyl)methyl)-3-(2,2,2-trifluoroethyl)-8-(trifluoromethyl)imidazo[1,2-a]pyridin-7-amine]	0.044 µM
Clc1c(NC2CCC(c3ccccc3)C2)ccn2c(CC3CC3)nnc12 (stereo not shown) [Example 2, 8-Chloro-3-(cyclopropylmethyl)-N-(3-phenylcyclopentyl)-[1,2,4]triazolo[4,3-a]pyridin-7-amine]	0.026 µM
Clc1c(NC[C@H]2C[C@@H]2c2cccc3c2CCO3)ccn2c(CC3CC3)nnc12 [Example 11, 8-Chloro-3-(cyclopropylmethyl)-N-(((1S,2S)-2-(2,3-dihydrobenzofuran-4-yl)cyclopropyl)methyl)-[1,2,4]triazolo[4,3-a]pyridin-7-amine]	0.012 µM
CC(Nc1ccn2c(CC3CC3)nnc2c1Cl)[C@@H]1C[C@H]1c1ccc(F)cc1 (stereo partly drawn) [Example 14, 8-Chloro-3-(cyclopropylmethyl)-N-(1-((1R,2R)-2-(4-fluorophenyl)cyclopropyl)ethyl)-[1,2,4]triazolo[4,3-a]pyridin-7-amine]	0.055 µM
CC(Nc1ccn2c(CC3CC3)nnc2c1Cl)[C@H]1C[C@@H]1c1ccc(F)cc1 (stereo partly drawn) [Example 15, 8-Chloro-3-(cyclopropylmethyl)-N-(1-((1S,2S)-2-(4-fluorophenyl)cyclopropyl)ethyl)-[1,2,4]triazolo[4,3-a]pyridin-7-amine]	0.031 µM
Fc1ccc(C2(CNc3ccn4c(CC5CC5)nnc4c3Cl)CC2)cc1 [Example 16, 8-chloro-3-(cyclopropylmethyl)-N-((1-(4-fluorophenyl)cyclopropyl)methyl)-[1,2,4]triazolo[4,3-a]pyridin-7-amine]	0.046 µM
N#Cc1ccccc1C1CC1CNc1ccn2c(CC3CC3)nnc2c1Cl (stereo not shown) [Example 17, 2-(2-(((8-chloro-3-(cyclopropylmethyl)-[1,2,4]triazolo[4,3-a]pyridin-7-yl)amino)methyl)cyclopropyl)benzonitrile]	0.006 µM
